{"source": "patent US20220249674A1", "about": "“BIOACTIVE SAPONIN LINKED TO A FUNCTIONAL MOIETY” (priority 2019, published 2022)", "key": {"[1]": {"system": "A431 cells", "assay_type": "cell-based, human", "settings": "chloroquine coadministration, with cetuximab-saporin (FIG. 52)", "procedure": "Cells were seeded in a 96 well plate at 5.000-10.000 c/w in 100 μL/well and incubated overnight at 37° C. […] The media was removed from the cell culture plate and replaced by 180 μL culture media, followed by the addition of 20 μL treatment-mix/well. […] In the case that endosomal acidification inhibitors (chloroquine (Sigma Aldrich) or bafilomycin A1 (Enzo Life Sciences)) were used, the cell culture media in step 1 of treatment was replaced by 180 μL media containing 1 μM chloroquine or 0.2 μM bafilomycin A1. The plate was incubated for 1 hour at 37° C., before the 10× treatment-mix samples were added. The remaining incubation and treatment steps were performed according to standard procedures known in the field."}, "[2]": {"system": "HeLa cells", "assay": "Cell-based bioassay of chemically modified SO1861 with dianthin-EGF (Example 8)", "procedure": "HeLa cells were incubated for 72 h with the following constructs and cell viability before and after the 72 h-incubation was assessed. In the experiments, cells were exposed to 1.5 μM dianthin-EGF conjugate. A negative control were cells incubated with buffer vehicle and 10 microgram/ml saponin, without dianthin-EGF. Cell viability was set to 100% for the control in which both saponin and EGF-dianthin were omitted. […] Cell viability after 72 h was essentially 0%. For the chemically modified saponin variants, 10 microgram/ml saponin was tested in combination with 1.5 μM dianthin-EGF."}, "[3]": {"system": "EGFR expressing cells (e.g. A431, HeLa)", "assay_type": "cell-based", "set-up": "key: Cell killing activity (+ or −); Cell killing activity (+ or −)", "text": "The saponin is either linked to the ligand directly, or via a (cleavable) linker, via a scaffold, a carrier protein, etc., etc."}, "[4]": {"assay": "pH dependent hydrolysis of the hydrazone bond (MALDI-TOF-MS)", "assay_type": "physicochemical", "settings": "HCl solution at pH 3"}, "[5]": {"system": "HeLa cells", "assay": "Cell viability assay, inhibition of SO1861-mediated endosomal escape by polymeric structures (Example 19)", "assay_type": "cell-based", "settings": "SO1861 series + […] dianthin-EGF, 500 nM PAMAM (derivative) or chloroquine, 667 nM dendron"}, "[6]": {"system": "NIH-3T3 cells", "settings": "saporins; cited from earlier work"}, "[7]": {"settings": "combinatory treatment with saponins; cited from earlier work"}, "[8]": {"system": "mammalian cells", "assay": "Cell-based bioassay of endosomal escape enhancement by QS-21", "settings": "2.5 microgram/ml; effector moiety EGF-dianthin", "text": "The effector moiety exposed to the cells was EGF-dianthin."}, "[9]": {"system": "SK-BR-3, JIMT-1, MDA-MB-468, A431, CaSki, HeLa, A2058, BT-474", "assay": "Relative cell viability, mAb / toxin / mAb-toxin monotherapy (FIG. 11)", "assay_type": "cell-based", "set-up": "dose or concentration left out as unconfirmed", "settings": "panel of cell lines", "method": "After treatment the cells were incubated for 72 hr at 37° C. before the cell viability was determined by a MTS-assay, performed according to the manufacturer's instruction (CellTiter 96® AQueous One Solution Cell Proliferation Assay, Promega). Briefly, the MTS solution was diluted 20× in DMEM without phenol red (PAN-Biotech GmbH) supplemented with 10% FBS (PAN-Biotech GmbH). […] Subsequently, the optical density at 492 nm was measured on a Thermo Scientific Multiskan FC plate reader (Thermo Scientific). For quantification the background signal of ‘medium only’ wells was subtracted from all other wells, before the ratio of untreated/treated cells was calculated, by dividing the background corrected signal of untreated wells over the background corrected signal of the treated wells."}}, "note": "Like-named read-outs stand apart in the source and are kept apart here.", "data": [{"molecule": "CC(=O)OC1C(C)OC(OC2C(C)OC(OC(=O)[C@]34CCC(C)(C)CC3C3=CCC5[C@@]6(C)CC[C@H](OC7OC(C(=O)O)C(O)C(OC8OCC(O)C(O)C8O)C7OC7OC(CO)C(O)C(O)C7O)[C@@](C)(/C=N/NC(=O)CCCCCN7C(=O)C=CC7=O)C6CC[C@@]5(C)[C@]3(C)C[C@H]4O)C(OC3OC(C)C(OC4OCC(O)C(OC5OC(CO)C(O)C(O)C5O)C4O)C(O)C3O)C2O)C(O)C1OC1OCC(O)C(O)C1O", "note": "(some centres unmarked) [SO1861-EMCH]", "values": [{"measurement": "activity when endosomal acidification is blocked (in words)", "setting": "[1]", "value": "strongly reduces the activity"}, {"measurement": "cell viability (in words)", "setting": "[2]", "value": "reduced cell viability"}, {"measurement": "Cell killing activity", "setting": "[3]; 10 μg/ml SO1861 (conjugate) + […] EGFdianthin", "value": "+"}, {"measurement": "Cell killing activity", "setting": "[3]; 10 μg/ml SO1861 (conjugate), without EGFdianthin", "value": "−"}, {"measurement": "hydrolysis of the hydrazone bond (in words)", "setting": "[4]", "value": "responsive towards hydrolysis and gets cleaved"}]}, {"molecule": "CCN(CC)CCCC(C)Nc1ccnc2cc(Cl)ccc12", "note": "(centres unmarked) [chloroquine]", "values": [{"measurement": "inhibition of SO1861-mediated endosomal escape of the targeted toxin (in words)", "setting": "[5]", "value": "inhibit the SO1861-mediated endosomal escape of the targeted toxin"}]}, {"molecule": "CC1(C)[C@@H](O[C@H]2O[C@H](C(=O)O)[C@@H](O)[C@H](O)[C@H]2O[C@@H]2O[C@H](C(=O)O)[C@@H](O)[C@H](O)[C@H]2O)CC[C@]2(C)[C@H]3C(=O)C=C4[C@@H]5C[C@@](C)(C(=O)O)CC[C@]5(C)CC[C@@]4(C)[C@]3(C)CC[C@@H]12", "note": "[glycyrrhizic acid]", "values": [{"measurement": "enhancing effect on toxin toxicity (in words)", "setting": "[6]", "value": "do hardly have any positive effect"}]}, {"molecule": "Pseudomonas exotoxin A: bacterial toxin", "values": [{"measurement": "enhancement of cytotoxicity by saponins (in words)", "setting": "[7]", "value": "remained unaffected"}]}, {"molecule": "QS-21", "values": [{"measurement": "endosomal escape enhancement (in words)", "setting": "[8]", "value": "capable of enhancing endosomal escape"}]}, {"molecule": "helianthoside", "values": [{"measurement": "enhancing effect on toxin toxicity (in words)", "setting": "[6]", "value": "do hardly have any positive effect"}]}, {"molecule": "saporin", "values": [{"measurement": "relative cell viability (in words)", "setting": "[9]", "value": "do not or hardly have any influence on cell viability"}]}]}
